Measured values reported in patent publication US8772250B2, “Compositions and methods for treating ischemia and ischemia-reperfusion injury” (Ischemix, LLC, priority 2010, dated 2014).

Legend:
[1] = target: Src (Homo sapiens, UniProt P12931); experiment: Src tyrosine kinase activation assay (mobility shift); format: biochemical
From the text: IGF1R and Src tyrosine kinases have endogenous levels of activity in the presence of ATP and substrate. This activity was readily measured using a mobility shift assay using a Caliper LabChip® 3000 and a 12-sipper LabChip® to detect both phosphorylated and unphosphorylated substrate (Caliper Life Sciences, Discovery Alliances and Services Division). Enzyme, substrate and ATP concentrations were optimized for each assay. For the IGF1R assay, the final concentrations of the enzyme, peptide and ATP were 20 nM, 1.5 μM, and 1220 μM, respectively. For the Src assay, the final concentrations of the enzyme, peptide and ATP were 2.5 nM, 1.5 μM, and 17 μM, respectively.
RLip-EA-OH was evaluated at multiple concentrations for an effect on activation of IGF1 receptor kinase (IGF1R) and Src. The compounds tested activated IGF1R and Src with different selectivities.

[2] = test system: RIP-deficient Jurkat cells; experiment: Cell survival assay, TNFα-induced apoptosis; format: cell-based, human; conditions: for % Survival: 10 ng/mL TNFα, 24 h
Protocol: The ability of RLip-EA-OH to prevent apoptosis and promote cell survival was assessed using Jurkat cells deficient in Receptor-Interacting Protein (RIP), a cell death mediating protein. The Jurkat cell line is derived from human T-Lymphocytes. RIP-deficient Jurkat cells are susceptible to apoptosis when treated with tumor necrosis factor alpha (TNFα). These cells were treated with either vehicle or RLip-EA-OH and then apoptosis was triggered with TNFα. Cell survival was assessed to evaluate if RLip-EA-OH protected the cells against TNFα induced apoptosis.
RIP-deficient Jurkat cells were seeded into 96 well plates at 20,000 cells per well and treated for 2 hours with RLip-EA-OH (6 wells for each concentration) or DMSO. After pretreatment, 3 wells for each dose of drug were exposed to 10 ng/mL human recombinant TNFα (TNFα was not added to the other 3 wells). Twenty four hours after TNFα treatment, ATP cell viability was determined (CellTiter-Glo, Promega) and the values were used to calculate % survival of the cells.

[3] = Oxygen Radical Absorbance Capacity (ORAC) assay; conditions: mean of 3-4 experiments
From the text: Peroxyl radicals are one species of reactive oxygen produced by cells during reperfusion. The presence of peroxyl radicals can be detected by fluorescein oxidation. In the presence of peroxyl radicals, fluorescein fluorescence will decay over time. In the presence of an oxygen radical scavenger, the rate of decay is diminished. The change in the rate of decay between control and in the presence of scavengers is used to measure the peroxyl radical scavenging ability of a test compound.
Each compound tested was diluted to a concentration ranging from 25 μM to 250 μM in 10 mM phosphate buffer (pH=7.4) containing 10 nM fluorescein. The buffer and compound were incubated at 37° C. for 10 minutes. After the incubation, flourescein fluorescence was measured using a plate reader (Molecular Devices Flexstation II, Ex=485, Em=520). Baseline fluorescence measurements were recorded for 15 minutes before 2,2′-azobis(2-methylpropionamidine) dihydrochloride (AAPH) was added. The fluorescence decay was recorded for 90 minutes. The fluorescence decay without compound was subtracted from the fluorescence decay with compound. The slope of the decay vs. concentration is reported as the absorbance capacity.

Sequence of Src (P12931 whole entry, species assumed): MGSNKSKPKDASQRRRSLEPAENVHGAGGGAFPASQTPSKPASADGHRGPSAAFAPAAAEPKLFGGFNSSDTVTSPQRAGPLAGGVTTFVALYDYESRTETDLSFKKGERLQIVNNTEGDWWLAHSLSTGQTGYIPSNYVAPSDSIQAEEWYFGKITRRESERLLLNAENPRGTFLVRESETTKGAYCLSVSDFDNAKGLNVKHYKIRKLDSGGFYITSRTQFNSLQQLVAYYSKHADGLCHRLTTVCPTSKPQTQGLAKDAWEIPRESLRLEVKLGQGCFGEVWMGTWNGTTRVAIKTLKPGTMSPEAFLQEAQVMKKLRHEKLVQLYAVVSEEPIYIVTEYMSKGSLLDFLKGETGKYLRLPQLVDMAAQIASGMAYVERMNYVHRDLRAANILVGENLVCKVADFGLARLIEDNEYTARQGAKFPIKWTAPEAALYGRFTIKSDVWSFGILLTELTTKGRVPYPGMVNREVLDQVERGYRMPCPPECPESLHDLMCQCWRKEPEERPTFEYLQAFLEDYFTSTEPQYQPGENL

**Q.** Which “Src % activity above control (±SEM)” value ([1]; 100 μM) does the source give for `C[C@H](NC(=O)[C@H](CCC(=O)O)NC(=O)CCCC[C@@H]1CCSS1)C(=O)O` [RLip-EA-OH, N-(R)-lipoyl-L-glutamyl-L- alanine] here?
**A.** 70 ± 1%

**Q.** What about the “Src % Increase in activity above vehicle control” value ([1]; 300 μM) of the same compound?
**A.** 78 ± 2%

**Q.** What about the “% Survival” value ([2]; 0.006 μM) of the same compound?
**A.** 84%

**Q.** And the “% Survival” value ([2]; 0.012 μM)?
**A.** 95%

**Q.** And the “% Survival” value ([2]; 0.05 μM)?
**A.** 96%

**Q.** What about the “% Survival” value ([2]; 0.1 μM) of the same compound?
**A.** 98%

**Q.** And the “% Survival” value ([2]; 0.2 μM)?
**A.** 101%

**Q.** And the “% Survival” value ([2]; 1.5 μM)?
**A.** 106%

**Q.** What about the “effect on TNFα induced cell death” value ([2]; RIP-deficient Jurkat cells) of the same compound?
**A.** prevented TNFα induced cell death in a dose dependent manner

**Q.** And the “ORAC Value relative to RLip-EA-OH” value [3]?
**A.** 100 ± 11

**Q.** What about the “ORAC Value relative to RLip-OH” value [3] of the same compound?
**A.** 131 ± 6^
